Measurements as given in patent US20250205264A1, “METHODS OF USING AVERMECTIN COMPOSITIONS FOR THE TREATMENT OF SPASTICITY AND DOSING REGIMENS” (priority 2022, published 2025).

Test system: pentylenetetrazol (PTZ)-induced ictal brain activity
Test: Modulation of PTZ-induced seizures, BOLD fMRI
Format: in vivo, male Wistar rats
Conditions: for PTZ-induced brain activity: positive control compounds, all tested brain regions, high statistical significance
Method: Functional MRI (fMRI) was performed using a high-field preclinical MRI system in anesthetized male Wistar rats in order to determine the modulation of pentylenetetrazol (PTZ)-induced ictal brain activity by chronic treatment with test compound (TC). […] Vehicle and 3 mg/kg Alprazolam served as controls (see, Table 11) Seizures were induced with PTZ in each experimental group. A schematic of the study design can be seen in FIG. 6. Various physiological parameters were also measured throughout the experiment including body weight, CO2 levels, blood pH, and heart rate. […] Vehicle and 3 mg/kg Alprazolam served as controls (see, Table 12).

Compound | PTZ-induced brain activity | Statistical significances of BOLD fMRI AUC, Vehicle vs. Alprazolam (brain regions) (FIG. 7A, 3 mg/kg+PTZ, two-way ANOVA)
CN1C(=O)CN=C(c2ccccc2)c2cc(Cl)ccc21 [Diazepam] | effectively cancelled PTZ-induced brain activity | 
Cc1nnc2n1-c1ccc(Cl)cc1C(c1ccccc1)=NC2 [Alprazolam] | effectively cancelled PTZ-induced brain activity | in all
